Values joined by “and” are separate entries in the source; they are usually repeats but may differ in a detail not shown here. Identical values can stand only once. Like-named read-outs stand apart in the source and are kept apart here.
Experiments:
Assay in all cases: SelectScreen kinase assay
AAK1 = AAK1 (Homo sapiens, UniProt Q2M2I8)
Method: (§1) Selectivity profiling assays were performed by the Invitrogen SelectScreen™ Services. […] The concentration of ATP was selected to be equal to the KM, unless indicated otherwise.

ABL1 = ABL1 (Homo sapiens, UniProt P00519)
Method: as §1

AXL = AXL (Homo sapiens, UniProt P30530); settings: for Inhibition at 1 µM (%): AXL, ZLYTE, ATP Km app
Method: as §1

CAMK2A (CaMKII alpha) = CAMK2A (CaMKII alpha) (Homo sapiens, UniProt Q9UQM7)
Method: as §1

CDC42 BPB (MRCKB) = CDC42 BPB (MRCKB) (Homo sapiens, UniProt Q9Y5S2); settings: 1 h, 1 μM WEL028, 1 h preincubation
Method: as §1

CSNK1G2 (CK1 gamma 2) = CSNK1G2 (CK1 gamma 2) (Homo sapiens, UniProt P78368)
Method: as §1

ERBB2 (HER2) = ERBB2 (HER2) (Homo sapiens, UniProt P04626); settings: for Inhibition at 1 µM (%): ERBB2 (HER2), ZLYTE, ATP Km app
Method: as §1

MAP2K4 (MEK4) = target: T1, MAP2K4 (MEK4) (Homo sapiens, UniProt P45985)
T1 sequence (P45985 1-399): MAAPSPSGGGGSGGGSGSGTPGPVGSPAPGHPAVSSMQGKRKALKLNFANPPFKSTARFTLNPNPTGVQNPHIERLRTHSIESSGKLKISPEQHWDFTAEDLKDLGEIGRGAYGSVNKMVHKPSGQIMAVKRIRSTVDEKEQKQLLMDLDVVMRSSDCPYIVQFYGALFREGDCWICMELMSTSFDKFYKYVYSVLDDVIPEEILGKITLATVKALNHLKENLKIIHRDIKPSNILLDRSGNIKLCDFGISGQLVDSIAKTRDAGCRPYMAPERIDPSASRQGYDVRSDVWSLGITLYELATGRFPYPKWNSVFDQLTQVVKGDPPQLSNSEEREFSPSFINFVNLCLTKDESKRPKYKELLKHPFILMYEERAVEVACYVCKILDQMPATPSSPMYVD
Method: as §1

MAP4K2 (GCK) = MAP4K2 (GCK) (Homo sapiens, UniProt Q12851)
Method: as §1

NUAK2 = target: T2, NUAK2 (Homo sapiens, UniProt Q9H093)
T2 sequence (Q9H093 1-628): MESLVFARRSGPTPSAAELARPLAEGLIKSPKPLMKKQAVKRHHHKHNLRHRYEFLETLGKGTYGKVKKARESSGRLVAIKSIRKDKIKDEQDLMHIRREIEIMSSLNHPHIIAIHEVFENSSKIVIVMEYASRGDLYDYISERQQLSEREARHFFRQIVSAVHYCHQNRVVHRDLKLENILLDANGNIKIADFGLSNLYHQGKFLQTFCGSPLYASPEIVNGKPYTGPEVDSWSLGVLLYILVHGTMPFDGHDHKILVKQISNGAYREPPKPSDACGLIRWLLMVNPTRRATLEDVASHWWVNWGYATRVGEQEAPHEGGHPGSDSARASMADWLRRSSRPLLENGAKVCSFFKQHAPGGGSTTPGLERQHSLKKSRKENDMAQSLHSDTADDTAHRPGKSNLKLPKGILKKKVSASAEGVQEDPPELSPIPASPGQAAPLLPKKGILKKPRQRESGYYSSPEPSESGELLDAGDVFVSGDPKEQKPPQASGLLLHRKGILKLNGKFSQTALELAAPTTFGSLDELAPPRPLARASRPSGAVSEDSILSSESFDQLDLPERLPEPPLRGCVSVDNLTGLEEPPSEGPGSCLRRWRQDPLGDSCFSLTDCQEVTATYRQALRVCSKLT
Method: as §1

PHKG1 = PHKG1 (Homo sapiens, UniProt Q16816); settings: 1 h, 1 μM WEL028, 1 h preincubation
Method: as §1

PRKACB (PRKAC beta) = PRKACB (PRKAC beta) (Homo sapiens, UniProt P22694); settings: for Inhibition at 1 µM (%): PRKACB (PRKAC beta), LanthaScreen Binding
Method: as §1

SGK (SGK1) = target: T3, SGK (SGK1) (Homo sapiens, UniProt O00141)
T3 sequence (O00141 1-431): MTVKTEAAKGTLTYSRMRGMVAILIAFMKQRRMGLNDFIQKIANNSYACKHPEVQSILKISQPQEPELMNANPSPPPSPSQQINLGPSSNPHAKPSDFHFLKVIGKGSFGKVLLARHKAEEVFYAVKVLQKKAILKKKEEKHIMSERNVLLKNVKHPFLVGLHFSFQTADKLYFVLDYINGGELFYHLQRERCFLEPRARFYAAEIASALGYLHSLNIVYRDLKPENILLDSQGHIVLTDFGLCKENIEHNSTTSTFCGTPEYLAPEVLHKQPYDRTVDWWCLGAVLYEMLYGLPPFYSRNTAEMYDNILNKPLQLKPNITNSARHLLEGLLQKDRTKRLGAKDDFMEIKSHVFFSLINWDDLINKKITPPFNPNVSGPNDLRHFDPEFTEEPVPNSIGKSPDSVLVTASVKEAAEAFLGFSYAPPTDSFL
Method: as §1

[1] = 1 h, 1 μM WEL028, 1 h preincubation

Chain of ABL1 (P00519 whole entry): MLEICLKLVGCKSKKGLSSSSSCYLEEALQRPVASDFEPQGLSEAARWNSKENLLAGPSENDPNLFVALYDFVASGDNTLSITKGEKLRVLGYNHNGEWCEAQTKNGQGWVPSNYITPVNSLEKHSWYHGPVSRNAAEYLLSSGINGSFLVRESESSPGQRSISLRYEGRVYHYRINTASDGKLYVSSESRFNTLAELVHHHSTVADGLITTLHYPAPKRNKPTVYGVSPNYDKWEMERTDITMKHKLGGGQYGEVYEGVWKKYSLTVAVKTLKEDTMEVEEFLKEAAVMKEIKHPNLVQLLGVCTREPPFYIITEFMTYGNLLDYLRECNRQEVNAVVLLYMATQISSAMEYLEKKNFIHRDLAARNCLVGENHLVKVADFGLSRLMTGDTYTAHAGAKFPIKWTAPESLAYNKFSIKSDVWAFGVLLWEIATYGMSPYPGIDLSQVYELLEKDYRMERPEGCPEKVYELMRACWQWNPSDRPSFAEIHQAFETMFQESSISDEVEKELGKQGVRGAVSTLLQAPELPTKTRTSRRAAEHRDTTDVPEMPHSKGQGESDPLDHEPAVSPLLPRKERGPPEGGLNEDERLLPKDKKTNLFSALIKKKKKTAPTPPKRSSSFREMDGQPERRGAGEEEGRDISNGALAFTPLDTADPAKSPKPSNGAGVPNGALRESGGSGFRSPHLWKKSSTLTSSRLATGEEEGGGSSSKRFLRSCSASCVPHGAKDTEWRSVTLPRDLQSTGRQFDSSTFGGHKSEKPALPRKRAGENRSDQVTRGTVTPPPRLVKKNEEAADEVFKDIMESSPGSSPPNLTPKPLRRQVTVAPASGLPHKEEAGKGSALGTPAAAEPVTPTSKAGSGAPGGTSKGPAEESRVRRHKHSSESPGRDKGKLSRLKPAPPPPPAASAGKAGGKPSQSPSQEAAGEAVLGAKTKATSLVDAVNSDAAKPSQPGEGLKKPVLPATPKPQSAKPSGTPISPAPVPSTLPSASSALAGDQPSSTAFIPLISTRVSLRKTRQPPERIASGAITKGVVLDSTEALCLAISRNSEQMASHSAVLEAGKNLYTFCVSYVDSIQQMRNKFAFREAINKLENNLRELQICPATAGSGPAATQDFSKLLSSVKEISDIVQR
Chain of CAMK2A (CaMKII alpha) (Q9UQM7 whole entry): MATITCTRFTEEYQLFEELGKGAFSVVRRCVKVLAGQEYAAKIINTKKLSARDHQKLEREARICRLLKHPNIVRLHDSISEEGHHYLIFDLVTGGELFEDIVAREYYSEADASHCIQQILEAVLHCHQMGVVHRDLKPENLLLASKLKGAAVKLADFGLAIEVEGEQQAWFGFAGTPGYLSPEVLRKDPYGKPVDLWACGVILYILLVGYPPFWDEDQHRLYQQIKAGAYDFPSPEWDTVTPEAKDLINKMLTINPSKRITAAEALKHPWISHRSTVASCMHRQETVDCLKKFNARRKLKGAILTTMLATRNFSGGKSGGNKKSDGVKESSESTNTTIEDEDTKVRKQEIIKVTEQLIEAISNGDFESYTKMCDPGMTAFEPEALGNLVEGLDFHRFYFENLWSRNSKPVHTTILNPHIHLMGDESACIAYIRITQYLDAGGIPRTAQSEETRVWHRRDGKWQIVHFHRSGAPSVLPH
Chain of AXL (P30530 26-894): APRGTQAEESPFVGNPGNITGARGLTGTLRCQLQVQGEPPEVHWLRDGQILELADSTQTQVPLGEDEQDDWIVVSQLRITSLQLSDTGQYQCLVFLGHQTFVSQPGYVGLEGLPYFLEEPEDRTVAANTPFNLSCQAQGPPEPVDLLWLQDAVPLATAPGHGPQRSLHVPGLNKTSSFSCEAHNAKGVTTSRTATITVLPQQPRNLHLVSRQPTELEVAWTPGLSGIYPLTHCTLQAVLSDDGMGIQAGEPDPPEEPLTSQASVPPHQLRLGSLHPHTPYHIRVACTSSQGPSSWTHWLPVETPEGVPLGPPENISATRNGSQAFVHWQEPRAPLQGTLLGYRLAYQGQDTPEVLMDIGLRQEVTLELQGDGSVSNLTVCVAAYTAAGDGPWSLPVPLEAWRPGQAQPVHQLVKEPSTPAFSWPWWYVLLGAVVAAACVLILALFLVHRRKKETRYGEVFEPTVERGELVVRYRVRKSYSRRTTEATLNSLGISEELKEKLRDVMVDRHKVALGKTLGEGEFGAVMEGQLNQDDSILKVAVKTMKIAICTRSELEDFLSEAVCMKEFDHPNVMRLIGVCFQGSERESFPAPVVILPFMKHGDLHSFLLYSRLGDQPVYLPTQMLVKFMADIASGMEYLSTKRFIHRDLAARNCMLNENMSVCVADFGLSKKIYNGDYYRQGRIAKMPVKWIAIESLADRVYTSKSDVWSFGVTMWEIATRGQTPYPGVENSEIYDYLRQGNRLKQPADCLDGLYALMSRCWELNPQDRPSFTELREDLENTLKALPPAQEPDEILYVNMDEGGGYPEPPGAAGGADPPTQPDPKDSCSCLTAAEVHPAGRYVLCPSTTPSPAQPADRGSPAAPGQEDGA
Chain of CSNK1G2 (CK1 gamma 2) (P78368 whole entry): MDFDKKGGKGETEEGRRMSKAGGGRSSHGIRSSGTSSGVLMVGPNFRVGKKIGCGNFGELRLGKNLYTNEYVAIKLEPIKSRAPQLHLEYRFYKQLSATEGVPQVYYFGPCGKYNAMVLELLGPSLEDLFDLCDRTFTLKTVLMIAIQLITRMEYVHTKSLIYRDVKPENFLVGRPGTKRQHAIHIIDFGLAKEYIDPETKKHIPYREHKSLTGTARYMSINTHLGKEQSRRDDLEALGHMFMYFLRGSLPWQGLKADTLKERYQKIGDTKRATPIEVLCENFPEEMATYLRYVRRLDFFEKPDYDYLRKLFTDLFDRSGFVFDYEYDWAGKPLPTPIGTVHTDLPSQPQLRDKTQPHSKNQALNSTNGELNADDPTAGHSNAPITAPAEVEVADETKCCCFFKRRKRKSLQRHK
Chain of ERBB2 (HER2) (P04626 23-1255): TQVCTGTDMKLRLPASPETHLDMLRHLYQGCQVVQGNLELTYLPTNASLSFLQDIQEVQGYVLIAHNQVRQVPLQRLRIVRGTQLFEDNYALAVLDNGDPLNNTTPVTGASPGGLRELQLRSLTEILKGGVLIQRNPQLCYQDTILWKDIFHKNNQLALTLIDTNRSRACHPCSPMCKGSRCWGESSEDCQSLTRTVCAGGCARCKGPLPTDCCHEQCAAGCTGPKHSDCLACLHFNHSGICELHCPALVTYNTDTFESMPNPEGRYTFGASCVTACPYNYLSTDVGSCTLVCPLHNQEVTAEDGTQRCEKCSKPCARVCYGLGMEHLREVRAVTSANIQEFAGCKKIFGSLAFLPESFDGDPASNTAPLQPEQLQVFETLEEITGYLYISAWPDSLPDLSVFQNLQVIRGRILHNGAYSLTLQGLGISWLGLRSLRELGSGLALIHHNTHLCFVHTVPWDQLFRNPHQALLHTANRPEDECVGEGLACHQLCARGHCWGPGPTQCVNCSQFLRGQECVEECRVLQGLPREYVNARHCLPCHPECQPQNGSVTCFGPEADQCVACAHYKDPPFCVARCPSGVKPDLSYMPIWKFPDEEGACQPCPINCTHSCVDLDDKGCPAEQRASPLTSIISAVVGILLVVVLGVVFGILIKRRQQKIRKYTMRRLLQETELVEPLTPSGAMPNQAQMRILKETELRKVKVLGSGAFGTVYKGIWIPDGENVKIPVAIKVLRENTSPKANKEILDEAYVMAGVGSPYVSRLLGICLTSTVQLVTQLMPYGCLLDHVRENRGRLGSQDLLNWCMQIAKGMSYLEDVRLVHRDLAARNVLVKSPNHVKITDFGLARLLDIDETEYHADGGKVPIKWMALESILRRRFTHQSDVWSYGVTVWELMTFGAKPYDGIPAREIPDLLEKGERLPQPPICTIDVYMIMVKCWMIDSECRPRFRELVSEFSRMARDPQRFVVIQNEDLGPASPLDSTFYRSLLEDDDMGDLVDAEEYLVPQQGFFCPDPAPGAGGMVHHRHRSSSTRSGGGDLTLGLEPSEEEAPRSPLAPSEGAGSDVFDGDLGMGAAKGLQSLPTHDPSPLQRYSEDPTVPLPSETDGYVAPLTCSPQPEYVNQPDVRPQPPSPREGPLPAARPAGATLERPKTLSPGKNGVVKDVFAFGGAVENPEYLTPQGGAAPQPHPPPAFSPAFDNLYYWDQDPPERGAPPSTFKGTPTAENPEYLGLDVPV
Chain of AAK1 (Q2M2I8 whole entry): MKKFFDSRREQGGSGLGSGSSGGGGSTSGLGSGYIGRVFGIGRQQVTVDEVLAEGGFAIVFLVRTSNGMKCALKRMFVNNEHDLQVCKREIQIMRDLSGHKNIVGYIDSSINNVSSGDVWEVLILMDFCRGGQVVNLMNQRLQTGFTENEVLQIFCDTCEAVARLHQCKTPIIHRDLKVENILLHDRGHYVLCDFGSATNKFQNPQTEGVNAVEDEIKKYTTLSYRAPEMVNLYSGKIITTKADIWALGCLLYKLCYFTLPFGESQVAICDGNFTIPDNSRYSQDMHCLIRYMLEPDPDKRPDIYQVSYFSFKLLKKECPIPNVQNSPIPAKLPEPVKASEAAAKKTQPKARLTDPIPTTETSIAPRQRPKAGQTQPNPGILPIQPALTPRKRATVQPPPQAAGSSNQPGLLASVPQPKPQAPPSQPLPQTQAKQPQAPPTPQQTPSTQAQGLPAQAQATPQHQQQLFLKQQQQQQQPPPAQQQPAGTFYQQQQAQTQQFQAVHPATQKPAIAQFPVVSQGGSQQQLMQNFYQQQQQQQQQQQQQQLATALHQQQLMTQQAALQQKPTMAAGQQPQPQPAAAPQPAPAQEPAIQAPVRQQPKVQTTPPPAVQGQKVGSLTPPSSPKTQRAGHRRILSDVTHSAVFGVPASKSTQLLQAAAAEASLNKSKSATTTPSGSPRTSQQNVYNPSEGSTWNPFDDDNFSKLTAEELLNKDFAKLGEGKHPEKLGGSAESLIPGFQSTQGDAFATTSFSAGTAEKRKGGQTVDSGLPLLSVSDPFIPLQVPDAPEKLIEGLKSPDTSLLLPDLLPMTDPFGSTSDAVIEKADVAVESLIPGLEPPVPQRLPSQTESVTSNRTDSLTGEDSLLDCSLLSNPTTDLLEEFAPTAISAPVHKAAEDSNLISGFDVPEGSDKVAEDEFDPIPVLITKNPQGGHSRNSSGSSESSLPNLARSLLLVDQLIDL

SMILES: C#CCOc1ccc(Nc2ncc(Cl)c(Nc3ccccc3NC(=O)C=C)n2)c(OC)c1 [Compound 6]
- inhibition at 1 µM (AAK1; [1]): 33%
- Inhibition at 1 µM (%) (AAK1; AAK1, 1 µM, LanthaScreen Binding, listed as WEL028, 1 µM): 30%
- inhibition at 1 µM (AAK1; read-out: Inhibition at 1 µM (%), AAK1, 1 µM, LanthaScreen Binding): 35%
- inhibition at 1 µM (ABL1; [1]): -3%
- Inhibition at 1 µM (%) (ABL1; ABL1, 1 µM, ZLYTE, ATP Km app, listed as WEL028, 1 µM): -7% and 1%
- inhibition at 1 µM (AXL; [1]): -2%
- Inhibition at 1 µM (%) (AXL): 3%
- Inhibition at 1 µM (%) (AXL; listed as WEL028, 1 µM): -6%
- inhibition at 1 µM (CAMK2A (CaMKII alpha); [1]): -6%
- Inhibition at 1 µM (%) (CAMK2A (CaMKII alpha); CAMK2A (CaMKII alpha), 1 µM, ZLYTE, ATP Km app, listed as WEL028, 1 µM): -7% and -5%
- inhibition at 1 µM (CDC42 BPB (MRCKB)): 6%
- Inhibition (%) (CSNK1G2 (CK1 gamma 2); 1 μM WEL028, 1 h preincubation): 4%
- Inhibition at 1 µM (%) (CSNK1G2 (CK1 gamma 2); CSNK1G2 (CK1 gamma 2), 1 µM, ZLYTE, ATP Km app, listed as WEL028, 1 µM): 7% and 1%
- inhibition at 1 µM (ERBB2 (HER2); [1]): 2%
- Inhibition at 1 µM (%) (ERBB2 (HER2)): -2%
- Inhibition at 1 µM (%) (ERBB2 (HER2); listed as WEL028, 1 µM): 6%
- IC50 (MAP2K4 (MEK4)): 3.98 nM
- inhibition at 1 µM (MAP2K4 (MEK4); [1]): 104%
- Apparent fold selectivity (MAP2K4 (MEK4); IC50 on that kinase divided by IC50 on FES^S700C): 1 fold
- inhibition at 1 µM (MAP2K4 (MEK4); read-out: Inhibition at 1 µM (%), MAP2K4 (MEK4), 1 µM, LanthaScreen Binding): 103%
- inhibition at 1 µM (MAP4K2 (GCK); [1]): -12%
- Inhibition at 1 µM (%) (MAP4K2 (GCK); MAP4K2 (GCK), 1 µM, ZLYTE, ATP Km app): -23%
- Inhibition (%) (NUAK2; 1 μM WEL028, 1 h preincubation): 24%
- Inhibition at 1 µM (%) (NUAK2; NUAK2, 1 µM, LanthaScreen Binding, listed as WEL028, 1 µM): 30%
- inhibition at 1 µM (NUAK2; read-out: Inhibition at 1 µM (%), NUAK2, 1 µM, LanthaScreen Binding): 18%
- inhibition at 1 µM (PHKG1): -2%
- inhibition at 1 µM (PRKACB (PRKAC beta); [1]): 8%
- Inhibition at 1 µM (%) (PRKACB (PRKAC beta)): 12%
- Inhibition at 1 µM (%) (PRKACB (PRKAC beta); listed as WEL028, 1 µM): 5%
- Inhibition at 1 µM (%) (SGK (SGK1); 1 µM, ZLYTE, ATP Km app, listed as WEL028, 1 µM): 9%
- inhibition at 1 µM (SGK (SGK1); [1]): 10%
- inhibition at 1 µM (SGK (SGK1); read-out: Inhibition at 1 µM (%), 1 µM, ZLYTE, ATP Km app): 10%

From article PMC7316778 (Nature Communications, 2020)
